For one experiment, the system named is tobacco leaf disks. The experiment can be described thus: Callus growth from tobacco leaf disks on glyphosate. To be noted: for callus tissue formation: 0.5 mM glyphosate. It counts as cell-based, N. tabacum. The text has this: Leaf disks were excised from tobacco plants (N. tabacum) and treated as described above with A. tumefaciens cells containing pMON546 (or pMON505, for control cells) and helper plasmid pGV3111-SE.

For another experiment, the system named is sunflower plants. The experiment can be described thus: Sunflower plants sprayed with glyphosate. Type of experiment: in vivo.
For another experiment, the system named is soybean callus. As to the kind of experiment: Soybean callus growth on MS medium with glyphosate. It counts as cell-based, Glycine canescens. The protocol:
Sterile hypocotyl pieces of Glycine canescens, a type of soybean, were infected with the A. tumefaciens strain containing the chimeric EPSPS gene as described in Example 2. Nurse culture plates were made which contained a medium of 10% of the normal level of MS salts (GIBCO), B5 vitamins, 3 g/l sucrose, 2 mg/l napthalene acetic acid, 1 mg/l benzyladenine, and 0.5 mM arginine. The pH was adjusted to 5.7 before autoclaving.
The infected soybean hypocotyls were incubated at 26° C. for two days and transferred to a similar medium (except that the MS salts were not diluted) and additionally containing 500 mg/l carbenicillin, 100 mg/l cefotaxime and 100 mg/l kanamycin. Under these conditions, only transformed soybean callus was able to grow.
Control tissue was produced using A. tumefaciens cells containing the helper Ti plasmid pTiT37-SE and a plant transformation vector pMON200. See Fraley et al, Biotechnology Vol. 3, 1985, described herein. The co-integrate pTiT37-SE contained a T-DNA region with a NOS/NPTII/NOS kanamycin resistance gene and a NOS scorable marker gene identical to pMON200, but without the CaMV 35S/EPSPS/NOS gene.
After 14-17 days, soybean callus transformed with either the vector alone (pMON200 plasmid) or with the vector containing a chimeric EPSPS gene was transferred to petri dishes containing MS medium and 0, 0.5 mM or 1.0 mM glyphosate.
Within 18-20 days after transfer to the media containing glyphosate, actively growing callus tissue appeared in all dishes containing no glyphosate.

Another experiment relates to petunia plants. The experiment can be described thus: Plant response to glyphosate spraying (petunia plants, track sprayer). Type of experiment: in vivo. Particulars: isopropylamine salt with ionic surfactant. The protocol:
Four individual representative transgenic seedlings were selected, grown and tested in the testing procedure described below, along with four individual non-transformed (wild-type) petunia seedlings.
The plants were grown in a growth medium in a growth chamber at 26° C. with 12 hours of light per day. The plants were fertilized weekly with a soluble fertilizer and watered as needed. The plants were sprayed at a uniform and reproducible delivery rate herbicide by use of an automated track sprayer.
The glyphosate solution used was measured as pounds of glyphosate acid equivalents per acre, mixed as the glyphosate isopropylamine salt, with an ionic surfactant.
Four individual wild-type (non-transformed) petunia plants were selected for use as control plants. Four individual transformed plants containing the pMON546 vector were selected by kanamycin resistance as described in Horsch et al 1985.
The control plants and the transformed plants were sprayed with the isopropylamine salt of glyphosate at the application level listed in Table 2 below; the experimental results obtained are also summarized in Table 2.

In experiment [1] the test system is sunflower tumors and callus. As to the kind of experiment: Sunflower tumor and callus tolerance to glyphosate. Type of experiment: cell-based. The source says: The following procedures are utilized to obtain transformed sunflower tissue and shoots. Tumors are incited on sterile sunflower seedlings. Sunflower seeds are surface sterilized with 40% Chlorox and sterile distilled water rinses. The seeds are germinated on an agar medium containing B5 salts, 0.5% sucrose and 0.8% agar. Seven-day old seedlings are inoculated with overnight cultures of Agrobacterium strains carrying pTiB6S3-SE by scoring the internode or stabbing the internode with a syringe and using another syringe to introduce the bacteria into the wound. Tumors form in 2-3 weeks. The tumors are removed from the seedlings and grown independently on MS medium without hormones. Transformed callus and shoots are also obtained following a different procedure. Seeds are surface sterilized and placed on the germination medium above. Germination is carried out in the light for 10 days. Hypocotyl segments, 2-3 mm are, excised and inoculated with Agrobacterium strains containing engineered constructs. The hypocotyls are co-cultured for 2 days on a medium containing MS salts and vitamins, 5 g/l KN03, 100 mg/l inositol, 40 mg/l adenine sulfate, 500 mg/l casamino acids, 1 mg/l NAA, 1 mg/l BA, 0.1 mg/l GA3, […] and 8 gm/l agar. After co-culture, the hypocotyls are placed on the same medium but containing 300 mg/l kanamycin and 500 mg/l carbenicillin.
A. tumefaciens containing binary vectors pMON546 and helper plasmid pTiB6S3-SE are used to produce tumors and callus and regenerated plants.

Another experiment concerns tomato leaf fragments. As to the kind of experiment: Tomato leaf callus assay on glyphosate. Type of experiment: cell-based, tomato VF36. To be noted: 0.5 mM glyphosate, 10 days. The procedure:
Sterile seedlings of VF36 tomato are grown on water agar. Hypocotyls and cotyledons are excised and cultured for 2 days on MS medium containing B5 vitamins, 30 g/l sucrose and 1 mg/l benzyladenine and 0.1 mg/l indole acetic acid. The seedlings are then infected with the A. tumefaciens vector containing the chimeric EPSPS gene described in Example 2, by immersing for about 30 seconds in a culture of A. tumefaciens containing the chimeric EPSP synthase gene that had been diluted to 10^7 bacteria/ml. Explants are obtained by cutting sections from the seedlings. The explants are blotted dry and incubated as described previously in Example 2 except that the medium contains only 10% of standard concentration of MS salts. After 2 days of coculture, the explants are transferred to selective medium containing 100 ug/ml kanamycin. Transformed tomato plants grow from the explants. Leaves from these plants are tested for glyphosate resistance using a leaf callus assay described below. Tomato leaf fragments from plants containing vector alone (pMON200) or the pMON546 chimeric EPSPS gene are incubated on callus medium described above containing 0.5 mM glyphosate.

For `O=C(O)CNCP(=O)(O)O` [glyphosate, N-phosphonomethylglycine], the callus tissue formation with tobacco leaf disks (cells transformed with CaMV/EPSPS gene (pMON546)) is listed as “created substantial amounts of callus tissue”; in the experiment with tobacco leaf disks (control cells without the gene (pMON505)) it was “did not create any detectable callus tissue”. Further, the “glyphosate resistance of transformed tobacco cells” value in the experiment on tobacco leaf disks (pMON542, E. coli mutant EPSPS construct with CTP) is reported as “resulted in glyphosate resistance”; in the experiment with tobacco leaf disks (pMON8078, E. coli mutant EPSPS construct without CTP) it was “failed to confer glyphosate resistance”. Further, in the experiment on sunflower plants (transformed sunflower plants), the “plant tolerance to spray” value was “demonstrate tolerance to glyphosate”. In the experiment on sunflower plants (wild type sunflower plants), the “plant response to spray” value was “kill wild type plants”. The callus growth in the experiment on soybean callus (callus colonies containing the chimeric EPSPS gene, 0.5 mM glyphosate, 18-20 days) was “showed definite growth”; in the experiment with soybean callus (control callus (pMON200 vector alone), 0.5 mM glyphosate, 18-20 days) it was “little growth in the dishes containing control callus”; with soybean callus (control tissues (pMON200), 1.0 mM glyphosate), “no callus growth from the control tissues”; in the experiment with soybean callus (transformed callus containing the chimeric EPSPS gene, 1.0 mM glyphosate), “some growth of the transformed callus”. For the same compound, the “Visual Appearance” value in the experiment on petunia plants (Chimeric EPSPS transformants (pMON546), 0.8 #/acre acid equivalent) is “healthy and viable”; in the experiment with petunia plants (Control (wild-type) petunia plants, 0.4 #/acre acid equivalent), “killed”. In experiment [1] (callus without the glyphosate resistance gene), the callus response is reported as “kill callus without the glyphosate resistance gene”. The tumor response entry in experiment [1] (control tumors which do not contain the glyphosate resistance gene) was “bleach and kill control tumors”. For the same compound, the callus tolerance in experiment [1] (non-tumorous callus transformed with pMON546) was “show tolerance to levels of glyphosate”. Further, the tumor tolerance entry in experiment [1] (tumors produced with pMON546) is given as “exhibit tolerance to glyphosate”. Moreover, the “callus growth from leaves” value in the experiment on tomato leaf fragments (control leaves (pMON200 vector alone)) is “completely inhibited and showed no signs of callus growth”; in the experiment on tomato leaf fragments (leaves from plants transformed with chimeric EPSPS gene (pMON546)), “produced callus”.

The record behind these values is patent US5188642A, “Glyphosate-resistant plants” (priority 1990, dated 1993).
